In article PMC11845477, “Exploring the principles behind antibiotics with limited resistance” (Nature Communications, 2025):

Legend:
[1] = test system: K. pneumoniae ATCC 10031 (SEN) and K. pneumoniae ATCC 700603 (MDR); assay: microbe, parasite or virus in culture; format: cell-based, Klebsiella pneumoniae; conditions: for MIC of ancestor: ancestor strain; for MIC: Klebsiella pneumoniae, across three biological replicates
Experimental: (§1) This study focused on multiple bacterial strains, as follows. For the FoR and ALE experiments, 2 strains per species were chosen: E. coli ATCC 25922, K. pneumoniae ATCC 10031, A. baumannii ATCC 17978, and P. aeruginosa ATCC BAA-3107 as sensitive (SEN) strains, and E. coli NCTC13846, K. pneumoniae ATCC 700603, A. baumannii ATCC BAA-1605 and P. aeruginosa LESB58 as multi-drug resistant (MDR) strains. Functional metagenomic screens were performed with E. coli ATCC 25922 and K. pneumoniae ATCC 10031 strains. To determine the dose-kill properties of the different antibiotics, an E. coli strain (ATCC 25922) expressing a yellow fluorescent protein (pZS2R, YFP, CHL^R) and a red fluorescent protein (pZS2R, mCherry, CHL^R) was used.
(§2) Unless otherwise indicated, cation-adjusted Mueller-Hinton Broth 2 (MHB, Millipore) medium was used throughout the study, except for SCH79797 (SCH).
(§3) A robotic liquid handling system was used to automatically prepare a 11 to 16-step serial dilution in 384-well microtiter plates (Greiner). A final concentration of 5 × 10^5 bacterial cells per mL were inoculated into each well containing 60 µL MHB medium. Bacterial cultures were incubated at 37 °C with continuous shaking (Infors shaker, 900 rpm with 3 mm throw) for 18 hours (2 replicates from each). Cell growth was monitored by measuring the optical density (OD600 values, using Biotek Synergy microplate reader). MIC was defined as the antibiotic concentration of complete growth inhibition (i.e., OD600 < 0.05). Relative MIC was calculated as follows:1 relativeMIC=MICevolved/MICancestor

[2] = test system: A. baumannii ATCC 17978 (SEN) and A. baumannii ATCC BAA-1605 (MDR); assay: microbe, parasite or virus in culture; format: cell-based, Acinetobacter baumannii; conditions: for MIC of ancestor: ancestor strain; for MIC: Acinetobacter baumannii, across three biological replicates
Experimental: as §1, §2, §3

[3] = test system: K. pneumoniae ATCC 10031 (SEN) and K. pneumoniae ATCC 700603 (MDR); assay: Adaptive laboratory evolution (ALE), relative MIC of evolved lines; format: cell-based, Klebsiella pneumoniae
Source text: Using the same set of bacterial strains, we initiated adaptive laboratory evolution with the aim to maximize the level of antibiotic resistance in the populations achieved during a longer, but fixed time period.
An established protocol for adaptive laboratory evolution[46],[73] was followed to propagate populations with the highest resistance levels. Starting with an antibiotic concentration that caused approximately 50% growth inhibition, ten parallel populations for each antibiotic-ancestor strain combination were grown for 72 hours at 37 °C with continuous shaking (300 RPM). MHB broth medium was used unless stated otherwise. After each incubation, 20 µl of each culture was transferred to four new wells containing fresh medium with increasing antibiotic concentrations (0.5×, 1×, 1.5×, and 2.5× the previous concentration) in a chessboard layout to monitor potential cross-contamination. Growth was monitored by measuring OD600 using a Biotek Synergy 2 microplate reader, and only populations grown in the highest drug concentration with an OD600 > 0.2 were transferred further.
as §3, with “relativeMIC=MICevolved/MICancestor […]” for “relativeMIC=MICevolved/MICancestor”
Supplementary Figure 4. Resistance levels following adaptive laboratory evolution across bacterial strains. The level of resistance was measured as the fold change in relative MIC between evolved and ancestral strains after ~60 days of adaptive laboratory evolution. Data are grouped by bacterial strain (A. baumannii (AB), E. coli (EC), K. pneumoniae (KP), and P. aeruginosa (PA)) and categorized as either multidrug-resistant (MDR) or sensitive (SEN). Each data point represents a laboratory evolved line, and boxplots show the median, first and third quartiles, with whiskers indicating the 5th and 95th percentiles.
Statistical analysis was performed using two-sided Dunn’s post-hoc test with Benjamini-Hochberg correction for multiple comparisons (****/ ***/ **/ * indicates p < 0.0001/ 0.001/ 0.01/ 0.05). For detailed information on antibiotic and bacterial species, see Supplementary Table 1. For mode of action groups, refer to Table 1. Source data are provided as a Source Data file.

[4] = test system: P. aeruginosa ATCC BAA-3107 (SEN) and P. aeruginosa LESB58 (MDR); assay: microbe, parasite or virus in culture; format: cell-based, Pseudomonas aeruginosa; conditions: Pseudomonas aeruginosa, across three biological replicates
Experimental: as §1, §2, §3

[5] = Klebsiella pneumoniae ATCC 10031 (KP-SEN)
[6] = Klebsiella pneumoniae ATCC 700603 (KP-MDR)
[7] = Acinetobacter baumannii ATCC 17978 (AB-SEN)

SMILES: CN[C@@H]1[C@@H](O[C@H]2O[C@H](CO)[C@@H](N)[C@H](O)[C@H]2O)OC2C[C@@H](N)[C@@H](O[C@H]3[C@H](O)[C@@H](O)[C@H](N)C[C@@H]3N)OC2[C@@H]1O (some centres unmarked) [Apramycin]
- MIC of ancestor [1, 5]: 2 µg/mL
- MIC of ancestor ([1]; Klebsiella pneumoniae ATCC 10031 (KP-SEN), sheet fig 2a): 2 µg/mL
- MIC of ancestor [1, 6]: 4 µg/mL
- MIC of ancestor ([1]; Klebsiella pneumoniae ATCC 700603 (KP-MDR), sheet fig 2a): 4 µg/mL
- MIC [1, 5]: 2 µg/mL
- MIC [1, 6]: 4 µg/mL
- MIC of ancestor [2, 7]: 4 µg/mL
- MIC of ancestor ([2]; Acinetobacter baumannii ATCC 17978 (AB-SEN), sheet fig 2a): 4 µg/mL
- MIC [2, 7]: 4 µg/mL
- MIC ([2]; Acinetobacter baumannii ATCC BAA-1605 (AB-MDR)): 8 µg/mL
- Relative MIC ([3]; KP-MDR (ATCC 700603), evolved line 1, MIC of evolved line / MIC of ancestor): 8
- Relative MIC ([3]; KP-MDR (ATCC 700603), evolved line 2, MIC of evolved line / MIC of ancestor): 16
- Relative MIC ([3]; KP-MDR (ATCC 700603), evolved line 3, MIC of evolved line / MIC of ancestor): 16
- Relative MIC ([3]; KP-MDR (ATCC 700603), evolved line 4, MIC of evolved line / MIC of ancestor): 4
- Relative MIC ([3]; KP-MDR (ATCC 700603), evolved line 5, MIC of evolved line / MIC of ancestor): 16
- Relative MIC ([3]; KP-MDR (ATCC 700603), evolved line 6, MIC of evolved line / MIC of ancestor): 8
- Relative MIC ([3]; KP-MDR (ATCC 700603), evolved line 7, MIC of evolved line / MIC of ancestor): 4
- Relative MIC ([3]; KP-MDR (ATCC 700603), evolved line 8, MIC of evolved line / MIC of ancestor): 8
- Relative MIC ([3]; KP-MDR (ATCC 700603), evolved line 9, MIC of evolved line / MIC of ancestor): 16
- Relative MIC ([3]; KP-MDR (ATCC 700603), evolved line 10, MIC of evolved line / MIC of ancestor): 8
- Relative MIC (log10) ([3]; KP-MDR (Klebsiella pneumoniae ATCC 700603), evolved line 1 adapted to the named antibiotic): 0.9031
- Relative MIC (log10) ([3]; KP-MDR (Klebsiella pneumoniae ATCC 700603), evolved line 2 adapted to the named antibiotic): 1.204
- Relative MIC (log10) ([3]; KP-MDR (Klebsiella pneumoniae ATCC 700603), evolved line 3 adapted to the named antibiotic): 1.204
- Relative MIC (log10) ([3]; KP-MDR (Klebsiella pneumoniae ATCC 700603), evolved line 8 adapted to the named antibiotic): 0.9031
- Relative MIC (log10) ([3]; KP-MDR (Klebsiella pneumoniae ATCC 700603), evolved line 9 adapted to the named antibiotic): 1.204
- Relative MIC ([3]; KP-SEN (ATCC 10031), evolved line 2, MIC of evolved line / MIC of ancestor): 64
- Relative MIC ([3]; KP-SEN (ATCC 10031), evolved line 3, MIC of evolved line / MIC of ancestor): 32
- Relative MIC ([3]; KP-SEN (ATCC 10031), evolved line 5, MIC of evolved line / MIC of ancestor): 64
- Relative MIC ([3]; KP-SEN (ATCC 10031), evolved line 6, MIC of evolved line / MIC of ancestor): 64
- Relative MIC ([3]; KP-SEN (ATCC 10031), evolved line 8, MIC of evolved line / MIC of ancestor): 64
- Relative MIC ([3]; KP-SEN (ATCC 10031), evolved line 9, MIC of evolved line / MIC of ancestor): 64
- Relative MIC ([3]; KP-SEN (ATCC 10031), evolved line 10, MIC of evolved line / MIC of ancestor): 128
- Relative MIC (log10) ([3]; KP-SEN (Klebsiella pneumoniae ATCC 10031), evolved line 2 adapted to the named antibiotic): 1.806
- Relative MIC (log10) ([3]; KP-SEN (Klebsiella pneumoniae ATCC 10031), evolved line 5 adapted to the named antibiotic): 1.806
- Relative MIC (log10) ([3]; KP-SEN (Klebsiella pneumoniae ATCC 10031), evolved line 6 adapted to the named antibiotic): 1.806
- Relative MIC (log10) ([3]; KP-SEN (Klebsiella pneumoniae ATCC 10031), evolved line 8 adapted to the named antibiotic): 1.806
- Relative MIC (log10) ([3]; KP-SEN (Klebsiella pneumoniae ATCC 10031), evolved line 10 adapted to the named antibiotic): 2.107
- Relative MIC ([3]; Klebsiella pneumoniae ATCC 10031 (KP-SEN), evolved line 2): 64
- Relative MIC ([3]; Klebsiella pneumoniae ATCC 10031 (KP-SEN), evolved line 3): 32
- Relative MIC ([3]; Klebsiella pneumoniae ATCC 10031 (KP-SEN), evolved line 5): 64
- Relative MIC ([3]; Klebsiella pneumoniae ATCC 10031 (KP-SEN), evolved line 6): 64
- Relative MIC ([3]; Klebsiella pneumoniae ATCC 10031 (KP-SEN), evolved line 8): 64
- Relative MIC ([3]; Klebsiella pneumoniae ATCC 10031 (KP-SEN), evolved line 9): 64
- Relative MIC ([3]; Klebsiella pneumoniae ATCC 10031 (KP-SEN), evolved line 10): 128
- Relative MIC ([3]; Klebsiella pneumoniae ATCC 700603 (KP-MDR), evolved line 1): 8
- Relative MIC ([3]; Klebsiella pneumoniae ATCC 700603 (KP-MDR), evolved line 2): 16
- Relative MIC ([3]; Klebsiella pneumoniae ATCC 700603 (KP-MDR), evolved line 3): 16
- Relative MIC ([3]; Klebsiella pneumoniae ATCC 700603 (KP-MDR), evolved line 4): 4
- Relative MIC ([3]; Klebsiella pneumoniae ATCC 700603 (KP-MDR), evolved line 5): 16
- Relative MIC ([3]; Klebsiella pneumoniae ATCC 700603 (KP-MDR), evolved line 6): 8
- Relative MIC ([3]; Klebsiella pneumoniae ATCC 700603 (KP-MDR), evolved line 7): 4
- Relative MIC ([3]; Klebsiella pneumoniae ATCC 700603 (KP-MDR), evolved line 8): 8
- Relative MIC ([3]; Klebsiella pneumoniae ATCC 700603 (KP-MDR), evolved line 9): 16
- Relative MIC ([3]; Klebsiella pneumoniae ATCC 700603 (KP-MDR), evolved line 10): 8
- MIC ([4]; ATCCBAA3107, Pseudomonas aeruginosa ATCC BAA-3107 (PA-SEN)): 8 µg/mL
- MIC ([4]; ATCCBAA3107, Pseudomonas aeruginosa LESB 58 (PA-MDR)): > 32 µg/mL
